Here are results for 16 compounds from patent US20150119394A1, “Insulin-Like Growth Factor-1 Receptor Inhibitors” (Merck Sharp & Dohme Corp., priority 2012, published 2015).

Some results are limits rather than exact numbers.

Data set [1] concerns the target T1, intracellular kinase domain of human IGF-1R (GST fusion protein) (Homo sapiens, UniProt P08069).
T1 construct: IGFRK and IRK enzyme used for the assay was intracellular kinase domain of human IGF-1R; GST; made in house
The data set is described as follows: In vitro IGF-1R kinase assay (HTRF). As to conditions: ATP 20 μM, IGFRK 0.25 nM. Type of data set: biochemical.

Data set [2] in a line: Oral absorption in Swiss mice. It is filed as in vivo. The conditions noted are these: 10 mg/kg p.o.; for Cmax / half-life / AUC(0-inf): male, mouse, plasma, po; for AUC(0-inf): read-out: AUC0-infinity. The procedure:
Oral absorption of different compounds was ascertained in Swiss mice. The procedure followed was as detailed below:
Species: Swiss mice, overnight fasted state
Sex and weight: Male, in the weight range of 25-30 g
Number of animals: 18 animals divided into six groups (n=3) and bled as follows:
Formulation: Compound suspended in 0.5% carboxymethylcellulose or 0.25% methylcellulose
Blood (250 μL) is collected from the retro-orbital sinus at designated time points from each mouse using heparinized bleeding capillaries into micro-centrifuge tubes containing 5 μL EDTA (200 mM) as anticoagulant. Plasma is separated by centrifugation at 10000 rpm for 5 min and samples stored at −70° C. until bioanalysis.
On the day of analysis, plasma samples are thawed at room temperature. An aliquot (100 μL) of each plasma sample is spiked individually with 10 μL of internal standard. The samples are then vortexed for 10 seconds followed by addition of 1 mL of extraction solvent and vortexed for 5 minutes. The samples are then centrifuged at 10000 rpm for 5 minutes at 4° C. Supernatants (800 μL) are removed and transferred to glass tubes and evaporated to dryness under nitrogen. The dried residues are reconstituted using 100 μL of 90:10% v/v acetonitrile:MilliQ water. The reconstituted samples are vortexed, centrifuged and injected into LC-MS/MS for analysis. The calibration curve is prepared in the range of 0.5 to 5000 ng/mL in mouse plasma for quantitation.

T1 sequence (P08069 999-1274 limits assumed): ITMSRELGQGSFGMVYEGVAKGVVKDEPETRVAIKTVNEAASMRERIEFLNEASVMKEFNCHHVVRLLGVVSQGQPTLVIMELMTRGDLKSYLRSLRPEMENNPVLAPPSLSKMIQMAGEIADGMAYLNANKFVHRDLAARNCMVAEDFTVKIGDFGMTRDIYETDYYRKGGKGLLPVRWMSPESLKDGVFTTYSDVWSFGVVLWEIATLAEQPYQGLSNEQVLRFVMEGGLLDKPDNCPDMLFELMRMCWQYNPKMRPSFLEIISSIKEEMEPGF

For `NC(=O)c1[nH]c2ccc(Cl)cc2c1S(=O)(=O)N1CCO[C@H](COc2cccc(-c3cccnc3F)c2)C1` [Compound 3, (S)-5-chloro-3-((2-((3-(2-fluoropyridin-3-yl)phenoxy)methyl)morpholino)sulfonyl)-1H-indole-2-carboxamide], in data set [1], the IC50 was found to be 31.2 nM. In addition, in data set [2], the “AUC as compared to compound 999” value is “higher”, the “Cmax as compared to compound 999” value is on record as “higher”, the highest level (Cmax) was 2980 nM and the half-life was 276 min. Moreover, in data set [2], the AUC(0-inf) was found to be 1960 ng·h/mL. In turn, `NC(=O)c1[nH]c2ccc(Cl)cc2c1S(=O)(=O)N1CCO[C@H](COc2ccc(-c3ccncc3)cc2)C1` [Compound 32, (S)-5-chloro-3-((2-((4-(pyridin-4-yl)phenoxy)methyl)morpholino)sulfonyl)-1H-indole-2-carboxamide] had an IC50 in data set [1] of 3.5 nM. Moreover, in data set [2], the “AUC as compared to compound 999” value was “higher”, the “Cmax as compared to compound 999” value is listed as “higher”, the concentration peaked (Cmax) at 2780 nM and the half-life is 168 min. For the same compound, the AUC(0-inf) in data set [2] was determined as 3190 ng·h/mL. In turn, `COc1ccccc1-c1ccc(OC[C@@H]2CN(S(=O)(=O)c3c(C(N)=O)[nH]c4ccc(Cl)cc34)CCO2)cc1` [Compound 43, (S)-5-chloro-3-((2-(((2′-methoxy-[1,1′-biphenyl]-4-yl)oxy)methyl)morpholino)sulfonyl)-1H-indole-2-carboxamide] had a 50% inhibitory concentration (IC50) in data set [1] above 100 nM. Still for that read-out and setting: with `Cc1cc(OC[C@@H]2CN(S(=O)(=O)c3c(C(N)=O)[nH]c4ccc(Cl)cc34)CCO2)ccc1-c1cccnc1F` [Compound 68, (S)-5-chloro-3-((2-((4-(2-fluoropyridin-3-yl)-3-methylphenoxy)methyl)morpholino)sulfonyl)-1H-indole-2-carboxamide] the figure was 37.9 nM; with `NC(=O)c1[nH]c2ccc(Cl)cc2c1S(=O)(=O)N1CCO[C@H](COc2cccc(-c3ccc(Cl)nc3)c2)C1` [Compound 86, (S)-5-chloro-3-((2-((3-(6-chloropyridin-3-yl)phenoxy)methyl)morpholino)sulfonyl)-1H-indole-2-carboxamide], 4.9 nM; with “(S)-5-chloro-3-((2-((3′-(dimethylamino)-[1,1′-biphenyl]-3-yl)oxy)methyl)morpholino)sulfonyl)-1H-indole-2-carboxamide [Compound 9]”, 220 nM. `NC(=O)c1[nH]c2ccc(Cl)cc2c1S(=O)(=O)N1CCO[C@H](COc2ccc(-c3ccccc3C(F)(F)F)cc2)C1` [Compound 38, (S)-5-chloro-3-((2-(((2′-(trifluoromethyl)-[1,1′-biphenyl]-4-yl)oxy)methyl)morpholino)sulfonyl)-1H-indole-2-carboxamide] yielded an IC50 in data set [1] of 113 nM.

`NC(=O)c1[nH]c2ccc(Cl)cc2c1S(=O)(=O)N1CCO[C@H](COc2ccc(-c3ccc(C(F)(F)F)nc3)cc2)C1` [Compound 35, (S)-5-chloro-3-((2-((4-(6-(trffluoromethyl)pyridin-3-yl)phenoxy)methyl)morpholino)sulfonyl)-1H-indole-2-carboxamide] came in with an IC50 in data set [1] above 1000 nM. On to `Cc1ccccc1-c1cccc(OC[C@@H]2CN(S(=O)(=O)c3c(C(N)=O)[nH]c4ccc(Cl)cc34)CCO2)c1` [Compound 10, (S)-5-chloro-3-((2-(((2′-methyl-[1,1′-biphenyl]-3-yl)oxy)methyl)morpholino)sulfonyl)-1H-indole-2-carboxamide], for which, in data set [1], half-maximal inhibition (IC50) was put at 199 nM. Still for that read-out and setting: for `NC(=O)c1[nH]c2ccc(Cl)cc2c1S(=O)(=O)N1CCO[C@H](COc2ccc(-c3ccccc3Cl)cc2)C1` [Compound 83, (S)-5-chloro-3-((2-(((2′-chloro-[1,1′-biphenyl]-4-yl)oxy)methyl)morpholino)sulfonyl)-1H-indole-2-carboxamide] the value was 97 nM; for `NC(=O)c1[nH]c2ccc(Cl)cc2c1S(=O)(=O)N1CCO[C@H](COc2ccc(-c3cccnc3F)cc2)C1` [Compound 49, (S)-5-chloro-3-((2-((4-(2-fluoropyridin-3-yl)phenoxy)methyl)morpholino)sulfonyl)-1H-indole-2-carboxamide], 5 nM. On the same count and under the same terms, with `Cc1ccc(OC[C@@H]2CN(S(=O)(=O)c3c(C(N)=O)[nH]c4ccc(Cl)cc34)CCO2)cc1-c1cccnc1F` [Compound 22, (S)-5-chloro-3-((2-((3-(2-fluoropyridin-3-yl)-4-methylphenoxy)methyl)morpholino)sulfonyl)-1H-indole-2-carboxamide] the figure was 42.5 nM; with `Cc1cc(OC[C@@H]2CN(S(=O)(=O)c3c(C(N)=O)[nH]c4ccc(Cl)cc34)CCO2)ccc1-c1ccncc1` [Compound 67, (S)-5-chloro-3-((2-((3-methyl-4-(pyridin-4-yl)phenoxy)methyl)morpholino)sulfonyl)-1H-indole-2-carboxamide], 4.3 nM; with `COc1ccc(-c2cc(OC[C@@H]3CN(S(=O)(=O)c4c(C(N)=O)[nH]c5ccc(Cl)cc45)CCO3)ccc2F)cn1` [Compound 29, (S)-5-chloro-3-((2-((4-fluoro-3-(6-methoxypyridin-3-yl)phenoxy)methyl)morpholino)sulfonyl)-1H-indole-2-carboxamide], 43.2 nM. For `NC(=O)c1[nH]c2ccc(Cl)cc2c1S(=O)(=O)N1CCO[C@H](COc2ccc(-c3ccnc(Cl)c3)cc2)C1` [Compound 84, (S)-5-chloro-3-((2-((4-(2-chloropyridin-4-yl)phenoxy)methyl)morpholino)sulfonyl)-1H-indole-2-carboxamide], the half-maximal inhibitory concentration (IC50) in data set [1] was determined as 18.5 nM. Further, in data set [2], the “AUC as compared to compound 999” value is recorded as “higher”, the “Cmax as compared to compound 999” value is “higher”, the Cmax turned out to be 1240 nM and the half-life is 78 min. Further, the AUC(0-inf) in data set [2] turned out to be 2200 ng·h/mL. Turning to `NC(=O)c1[nH]c2ccc(Cl)cc2c1S(=O)(=O)N1CCO[C@H](COc2cccc(-c3ccc(C(F)(F)F)nc3)c2)C1` [Compound 6, (S)-5-chloro-3-((2-((3-(6-(trifluoromethyl)pyridin-3-yl)phenoxy)methyl)morpholino)sulfonyl)-1H-indole-2-carboxamide], in data set [1], the IC50 amounted to 65 nM. This counts as double-digit nanomolar.
